Assay results reported in ChEMBL document CHEMBL5518181, “Studies of antibacterial activity (in vitro and in vivo) and mode of action for des-acyl tridecaptins (DATs)” (Eur J Med Chem, 2024).
≈ marks a conversion by molar mass, not a printed value. Calls of active or inactive are those of the source. The rule behind the calls is not given here.

What was measured:
Klebsiella pneumoniae [1] = experiment: Antibacterial activity against wild-type Klebsiella pneumoniae ATCC 13883 assessed as inhibition of bacterial growth incubated for 18 hrs; format: functional; conditions: for MIC: read-out: MIC100
Escherichia coli [2] = experiment: Antibacterial activity against Escherichia coli ATCC 25922 harboring hldE knock-out assessed as inhibition of bacterial growth incubated for 18 hrs; format: functional; conditions: read-out: MIC100
Escherichia coli [3] = experiment: Antibacterial activity against wild-type Escherichia coli ATCC 25922 assessed as inhibition of bacterial growth incubated for 18 hrs; format: functional; conditions: for MIC: read-out: MIC100
Escherichia coli [4] = experiment: Antibacterial activity against wild-type Escherichia coli ATCC 25922 assessed as inhibition of bacterial growth incubated for 18 hrs in presence of 50% heat inactivated human serum; format: functional; conditions: read-out: MIC100
Lipopolysaccharide (LPS) = experiment: Binding affinity to Escherichia coli O55:B5 LPS assessed as dissociation constant by ITC analysis; format: subcellular
Staphylococcus aureus [5] = experiment: Antibacterial activity against […] assessed as inhibition of bacterial growth incubated for 18 hrs; format: functional; conditions: ATCC 29213, read-out: MIC100
Escherichia coli [6] = experiment: Antibacterial activity against Escherichia coli ATCC 25922 harboring tolC knock-out assessed as inhibition of bacterial growth incubated for 18 hrs; format: functional; conditions: read-out: MIC100
Bacteria = experiment: Binding affinity to gram negative bacterial lipid II at 250 uM by ITC analysis
[7] = Cytotoxicity against human HepG2 cells incubated for 40 hrs by celltiter-glo luminescent cell viability assay; format: toxicity, cell-based
[8] = Hemolytic activity in human red blood cells at 400 ug/ml incubated for 45 mins by spectrophotometric analysis relative to control; format: toxicity, cell-based, Erythrocyte; conditions: red blood cells (erythrocytes), at 400 µg/mL, read-out: Activity
Acinetobacter baumannii = experiment: Antibacterial activity against wild-type Acinetobacter baumannii ATCC 19606 assessed as inhibition of bacterial growth incubated for 20 hrs; format: functional; conditions: read-out: MIC100
[9] = Hydrophobicity of compound assessed as %MeCN at peak elution by RP-HPLC analysis; format: physicochemical
Klebsiella pneumoniae [10] = experiment: Antibacterial activity against wild-type Klebsiella pneumoniae ATCC 13883 assessed as inhibition of bacterial growth incubated for 18 hrs in presence of 50% heat inactivated human serum; format: functional; conditions: read-out: MIC100
Escherichia coli [11] = experiment: Antibacterial activity against wild-type Escherichia coli ATCC 25922 assessed as inhibition of bacterial growth by measuring fold increase in MIC incubated for 18 hrs in presence of 50% heat inactivated human serum relative to control; format: functional
Pseudomonas aeruginosa [12] = experiment: Antibacterial activity against wild-type Pseudomonas aeruginosa PAO1 assessed as inhibition of bacterial growth incubated for 24 hrs; format: functional; conditions: read-out: MIC100
[13] = Binding affinity to gram negative bacterial lipid II assessed as dissociation constant by ITC analysis; design: species or system Bacteria
Escherichia coli [14] = experiment: Antibacterial activity against colistin resistant Escherichia coli NCTC 13846 harboring mcr-1 gene assessed as inhibition of bacterial growth incubated for 18 hrs; format: functional
Klebsiella pneumoniae [15] = experiment: Antibacterial activity against Klebsiella pneumoniae ATCC 43816 assessed as inhibition of bacterial growth incubated for 18 hrs; format: functional
Morganella morganii = experiment: Antibacterial activity against Morganella morganii ATCC 25830 assessed as inhibition of bacterial growth incubated for 18 hrs; format: functional
Escherichia coli [16] = experiment: Antibacterial activity against Escherichia coli panel (100 strains) assessed as inhibition of bacterial growth; format: functional
Staphylococcus aureus [17] = experiment: Antibacterial activity against wild type Staphylococcus aureus USA300 assessed as inhibition of bacterial growth incubated for 18 hrs; format: functional
Enterobacter cloacae = experiment: Antibacterial activity against Enterobacter cloacae ATCC 23355 assessed as inhibition of bacterial growth incubated for 18 hrs; format: functional
Klebsiella aerogenes = experiment: Antibacterial activity against Enterobacter aerogenes ATCC 13048 assessed as inhibition of bacterial growth incubated for 18 hrs; format: functional
Escherichia coli [18] = experiment: Antibacterial activity against Escherichia coli Swiss 9 harboring mcr-1 gene assessed as inhibition of bacterial growth incubated for 18 hrs; format: functional
Salmonella typhimurium = experiment: Antibacterial activity against Salmonella typhimurium ATCC 13311 assessed as inhibition of bacterial growth incubated for 18 hrs; format: functional; conditions: Salmonella enterica subsp. enterica serovar Typhimurium
Klebsiella pneumoniae [19] = experiment: Antibacterial activity against Klebsiella pneumoniae panel (100 strains) assessed as inhibition of bacterial growth; format: functional
Serratia marcescens = experiment: Antibacterial activity against intrinsically colistin resistant Serratia marcescens ATCC 13880 assessed as inhibition of bacterial growth incubated for 18 hrs; format: functional
Proteus mirabilis = experiment: Antibacterial activity against Proteus mirabilis ATCC 25933 assessed as inhibition of bacterial growth incubated for 18 hrs; format: functional
Providencia stuartii = experiment: Antibacterial activity against Providencia stuartii ATCC 25826 assessed as inhibition of bacterial growth incubated for 18 hrs; format: functional
Escherichia coli [20] = experiment: Antibacterial activity against Escherichia coli Swiss 7 harboring mcr-1 gene assessed as inhibition of bacterial growth incubated for 18 hrs; format: functional
Escherichia coli [21] = experiment: Antibacterial activity against Escherichia coli ATCC BAA-2469 expressing NDM-1 assessed as inhibition of bacterial growth incubated for 18 hrs; format: functional
Klebsiella pneumoniae [22] = experiment: Antibacterial activity against Klebsiella pneumoniae ATCC BAA-2470 expressing NDM-1 assessed as inhibition of bacterial growth incubated for 18 hrs; format: functional
Pseudomonas aeruginosa [23] = experiment: Antibacterial activity against efflux-deficient Pseudomonas aeruginosa PAO750 assessed as inhibition of bacterial growth incubated for 18 hrs; format: functional
Citrobacter freundii = experiment: Antibacterial activity against Citrobacter freundii ATCC 8090 assessed as inhibition of bacterial growth incubated for 18 hrs; format: functional
[24] = Drug localization in cytoplasm of Escherichia coli ATCC 25922 at 10 uM incubated for 10 mins by LC-MS/MS analysis; format: ADME, subcellular
[25] = Drug uptake in Escherichia coli ATCC 25922 at 10 uM incubated for 10 mins by LC-MS/MS analysis; format: ADME

CC[C@H](C)[C@@H](NC(=O)[C@@H](NC(=O)[C@H](CCC(=O)O)NC(=O)[C@H](Cc1ccccc1)NC(=O)[C@@H](CCN)NC(=O)[C@H](CCN)NC(=O)[C@H](CO)NC(=O)[C@@H](Cc1c[nH]c2ccccc12)NC(=O)[C@@H](CO)NC(=O)CNC(=O)[C@@H](CCN)NC(=O)[C@H](N)C(C)C)C(C)(C)C)C(=O)N[C@@H](C)C(N)=O
MIC (Klebsiella pneumoniae [1]): 2 µg/mL (≈ 1.42 µM) | MIC (Escherichia coli [2]): 0.125 µg/mL (≈ 0.0888 µM) | MIC (Escherichia coli [3]): 4 µg/mL (≈ 2.84 µM) | MIC (Escherichia coli [4]): 2 µg/mL | Kd (Lipopolysaccharide (LPS)): 16.7 µM | MIC (Staphylococcus aureus [5]): > 64 µg/mL | MIC (Escherichia coli [6]): 0.25 µg/mL (≈ 0.178 µM) | Activity (Bacteria): inactive | IC50 at 40 h [7]: 93 µg/mL (≈ 66.1 µM) | hemolysis at 0.75 h, 400 ug/ml [8]: 2.6% | MIC (Acinetobacter baumannii): > 64 µg/mL | MeCN percentage at peak elution [9]: 41% | MIC (Klebsiella pneumoniae [10]): 4 µg/mL | fold change (FC) (Escherichia coli [11]): 2 | MIC (Pseudomonas aeruginosa [12]): 16 µg/mL (≈ 11.4 µM)

CC[C@H](C)[C@H](N)C(=O)N[C@@H](C(=O)N[C@H](CCN)C(=O)NCC(=O)N[C@H](CO)C(=O)N[C@H](Cc1c[nH]c2ccccc12)C(=O)N[C@@H](CO)C(=O)N[C@@H](CCN)C(=O)N[C@H](CCN)C(=O)N[C@@H](Cc1ccccc1)C(=O)N[C@@H](CCC(=O)O)C(=O)N[C@H](C(=O)N[C@@H](C(=O)N[C@@H](C)C(=O)O)[C@@H](C)CC)C(C)C)C(C)C
MIC (Klebsiella pneumoniae [1]): 1 µg/mL (≈ 0.663 µM) | MIC (Escherichia coli [3]): 1 µg/mL (≈ 0.663 µM) | Kd (Lipopolysaccharide (LPS)): 0.088 µM | IC50 at 40 h [7]: 20 µg/mL (≈ 13.3 µM) | hemolysis at 0.75 h, 400 ug/ml [8]: 56.9% | Kd [13]: 4.8 µM

COLISTIN
MIC100 (Klebsiella pneumoniae [1]): 2 µg/mL | MIC100 (Escherichia coli [14]): 8 µg/mL | MIC100 (Klebsiella pneumoniae [15]): 1 µg/mL | MIC100 (Morganella morganii): > 32 µg/mL | MIC100 (Escherichia coli [3]): 0.5 µg/mL | MIC50 (Escherichia coli [16]): < 0.125 µg/mL | MIC90 (Escherichia coli [16]): 4 µg/mL | MIC100 (Staphylococcus aureus [17]): > 32 µg/mL | MIC100 (Enterobacter cloacae): 2 µg/mL | MIC100 (Klebsiella aerogenes): 2 µg/mL | MIC100 (Escherichia coli [18]): 8 µg/mL | MIC100 (Salmonella typhimurium): 2 µg/mL | MIC50 (Klebsiella pneumoniae [19]): 0.5 µg/mL | MIC90 (Klebsiella pneumoniae [19]): > 16 µg/mL | MIC100 (Serratia marcescens): > 32 µg/mL | MIC100 (Proteus mirabilis): > 32 µg/mL | MIC100 (Providencia stuartii): > 32 µg/mL | MIC100 (Escherichia coli [20]): 8 µg/mL | MIC100 (Escherichia coli [21]): 2 µg/mL | MIC100 (Klebsiella pneumoniae [22]): 4 µg/mL | MIC100 (Pseudomonas aeruginosa [23]): 2 µg/mL | MIC100 (Citrobacter freundii): 2 µg/mL

CC[C@H](C)[C@@H](NC(=O)[C@@H](NC(=O)[C@H](CCC(=O)O)NC(=O)[C@H](Cc1ccccc1)NC(=O)[C@@H](CCN)NC(=O)[C@H](CCN)NC(=O)[C@H](CO)NC(=O)[C@@H](Cc1c[nH]c2ccccc12)NC(=O)[C@@H](CO)NC(=O)CNC(=O)[C@@H](CCN)NC(=O)[C@H](N)C(C)C)C(C)(C)C)C(=O)N[C@@H](C)C(=O)O
MIC (Klebsiella pneumoniae [1]): 4 µg/mL (≈ 2.84 µM) | MIC (Escherichia coli [3]): 16 µg/mL (≈ 11.4 µM) | Drug uptake [24]: Active | hemolysis at 0.75 h, 400 ug/ml [8]: 86.3% | Drug uptake [25]: Active

CC[C@H](C)[C@@H](NC(=O)[C@@H](NC(=O)[C@H](CCC(=O)O)NC(=O)[C@H](Cc1ccccc1)NC(=O)[C@@H](CCN)NC(=O)[C@H](CCN)NC(=O)[C@H](CO)NC(=O)[C@@H](Cc1c[nH]c2ccccc12)NC(=O)[C@@H](CO)NC(=O)CNC(=O)[C@@H](CCN)NC(=O)[C@H](NC(=O)[C@@H]1CCCN1)C(C)C)C(C)C)C(=O)N[C@@H](C)C(=O)O
MIC (Klebsiella pneumoniae [1]): 4 µg/mL (≈ 2.68 µM) | MIC (Escherichia coli [2]): 2 µg/mL (≈ 1.34 µM) | MIC (Escherichia coli [3]): 4 µg/mL (≈ 2.68 µM) | MIC (Escherichia coli [4]): 1 µg/mL | MIC (Staphylococcus aureus [5]): > 64 µg/mL | MIC (Escherichia coli [6]): 2 µg/mL (≈ 1.34 µM) | IC50 at 40 h [7]: 109 µg/mL (≈ 73.1 µM) | hemolysis at 0.75 h, 400 ug/ml [8]: 5.5% | MIC (Acinetobacter baumannii): 64 µg/mL (≈ 42.9 µM) | MeCN percentage at peak elution [9]: 41.9% | MIC (Klebsiella pneumoniae [10]): 1 µg/mL | fold change (FC) (Escherichia coli [11]): 2 | MIC (Pseudomonas aeruginosa [12]): > 64 µg/mL
